Consider 14 compounds from patent publication US12662451B2, “Chemical compounds and uses thereof” (GLAXOSMITHKLINE INTELLECTUAL PROPERTY (NO.4) LIMITED, priority 2023, dated 2026).

A short description of series [1]: Cell culture media unbound percentage and stability by rapid equilibrium dialysis (Example C). Format: in vitro ADME. As to conditions: bovine, cell assay medium (RPMI-1640 with 10% fetal bovine serum), pH 7.4, rapid equilibrium dialysis, 4 hours at 37° C., read-out: Cell Culture Media Binding (% unbound). Here is the method:
(§1) It was observed that the compounds of the present disclosure are bound to cell assay media to various degrees, which would affect the cellular potency analysis in Example B. To measure free drug potency, concentrations used in the cell assays were corrected with the measured free fraction determined in the cell assay media. Compounds were incubated in a rapid equilibrium dialysis (RED) at a nominal concentration of 1 μM, using a dialysis buffer of phosphate-buffered saline (PBS, 100 mM sodium phosphate+150 mM sodium chloride, pH 7.4). The test compound was spiked into the medium. Aliquots were added to the donor wells of a RED plate in triplicate, and blank PBS was added to each receiver well, at volumes recommended by the manufacturer. Plates were incubated with shaking at 200 rpm for 4 hours at 37° C. The resultant samples were analysed by LC-MS/MS using a specific and sensitive method. Results were reported as analyte:internal standard peak area ratios (PARs), and the percent unbound was calculated with the following equation:
[formula] where D=the matrix dilution factor (D=1 for media); Apparent Fu=Crec/Cdon; Crec=PAR in receiver samples; Cdon=PAR in donor samples. Percent stability was calculated by:
(§2) [formula] where Cfinal=PAR in the T=240 minute sample; Cinitial=PAR in the T=0 minute sample. Cell culture media unbound percentage and calculated free drug potency of selected compounds along with their measured potency from Example B are shown in Table 3.

The target of series [2] is T1, recombinant full-length WRN protein (1-1432) (Homo sapiens, UniProt Q14191).
T1 construct: recombinant full-length WRN protein (1-1432)
T1 sequence (Q14191 whole entry): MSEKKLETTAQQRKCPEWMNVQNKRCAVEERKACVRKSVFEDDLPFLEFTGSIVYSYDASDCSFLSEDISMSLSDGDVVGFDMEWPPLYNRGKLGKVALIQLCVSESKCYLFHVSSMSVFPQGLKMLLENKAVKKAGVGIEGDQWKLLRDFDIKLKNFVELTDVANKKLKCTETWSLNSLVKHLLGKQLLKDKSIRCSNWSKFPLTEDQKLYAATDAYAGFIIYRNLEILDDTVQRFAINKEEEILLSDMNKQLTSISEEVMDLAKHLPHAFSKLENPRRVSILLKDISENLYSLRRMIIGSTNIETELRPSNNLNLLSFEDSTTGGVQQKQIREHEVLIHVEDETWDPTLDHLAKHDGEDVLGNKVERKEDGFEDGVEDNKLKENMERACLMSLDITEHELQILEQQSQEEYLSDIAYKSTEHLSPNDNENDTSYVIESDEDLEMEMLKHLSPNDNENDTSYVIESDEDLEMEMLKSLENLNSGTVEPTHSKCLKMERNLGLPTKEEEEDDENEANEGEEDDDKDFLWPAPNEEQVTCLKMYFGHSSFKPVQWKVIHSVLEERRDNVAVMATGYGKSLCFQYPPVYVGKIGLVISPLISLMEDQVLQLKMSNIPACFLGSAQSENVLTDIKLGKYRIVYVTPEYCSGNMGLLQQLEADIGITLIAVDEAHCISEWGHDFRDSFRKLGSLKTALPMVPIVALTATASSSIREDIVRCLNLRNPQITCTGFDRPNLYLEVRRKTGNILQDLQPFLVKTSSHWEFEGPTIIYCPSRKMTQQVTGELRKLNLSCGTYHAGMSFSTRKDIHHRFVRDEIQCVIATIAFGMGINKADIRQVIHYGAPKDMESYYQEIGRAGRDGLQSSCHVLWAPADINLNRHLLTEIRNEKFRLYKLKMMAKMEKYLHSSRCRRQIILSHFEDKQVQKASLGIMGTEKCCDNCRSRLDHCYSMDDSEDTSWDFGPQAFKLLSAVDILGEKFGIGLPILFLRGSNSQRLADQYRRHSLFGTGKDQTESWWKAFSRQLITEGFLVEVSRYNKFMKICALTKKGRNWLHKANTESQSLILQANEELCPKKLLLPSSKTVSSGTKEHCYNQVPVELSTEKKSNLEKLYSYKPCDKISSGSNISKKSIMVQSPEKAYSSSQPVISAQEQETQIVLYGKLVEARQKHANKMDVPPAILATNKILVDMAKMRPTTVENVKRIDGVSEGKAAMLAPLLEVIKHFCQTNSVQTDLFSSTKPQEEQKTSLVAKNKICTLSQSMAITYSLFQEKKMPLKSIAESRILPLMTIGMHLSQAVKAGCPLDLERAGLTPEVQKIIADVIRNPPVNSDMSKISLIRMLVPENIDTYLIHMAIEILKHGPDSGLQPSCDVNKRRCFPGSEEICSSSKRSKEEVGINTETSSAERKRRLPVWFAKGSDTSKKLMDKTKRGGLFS
As to the kind of experiment: WRN unwinding activity, fluorogenic 384-well assay (Example A). Format: biochemical. As to conditions: WRN unwinding activity, Table 2; for IC50: 4 hr, read-out: 4 hr UNW pIC50 (converted). An outline of the steps:
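200 pM enzyme (2× stock) preincubated with compound 4 h at ambient temperature, then 200 μM ATP and 12 nM quenched TAMRA-labelled dsDNA (2× stocks) added for 60 min; EDTA-quenched. Buffer 25 mM Tris pH 8.0, 5 mM NaCl, 2 mM MgCl2. Fluorescence at 525/598 nm; pIC50 from four-parameter fit.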

Series [3] relates to SW48 human colorectal cancer cells (MSI-H cancer cells). As to the kind of experiment: SW48 cell viability, CellTiter-Glo, 120 hours (Example B). As to conditions: for CC50: Homo sapiens.
Series [4] relates to SW48 human colorectal cancer cells. As to the kind of experiment: Calculated free drug potency in SW48 cell assay, corrected with media free fraction (Example C). Format: cell-based. The conditions noted are these: for CC50: Homo sapiens, SW48, SW48 pCC50 corrected with measured free fraction in cell assay media; for Free Drug SW48 pCC50: SW48 pCC50 corrected with measured free fraction in cell assay media. Here is the method:
as §1, §2

Where [5] appears, read: SW48, 120 h, read-out: SW48 pCC50, SW48 cell viability, 120 hours incubation (converted), Table 2.
The mark [6] stands for this setting: SW48, read-out: SW48 pCC50, measured potency from Example B, as repeated in Table 3 (converted).
The mark [7] stands for this setting: SW48 cell viability, 120 hours incubation, Table 2.
[8] abbreviates: measured potency from Example B, as repeated in Table 3.

Read-outs that look alike come from different tables or passages of the source.

Turning to `COc1cccc(S(=O)(=O)N(C)c2ccc([C@H]3CCC[C@@H](C(=O)Nc4ccc(C(F)(F)F)cc4F)[C@@H]3C(=O)O)cc2)c1` (racemic) [Example 82], the fraction unbound at 4 h, 1 µM in series [1] stood at 0.0147. Further, the IC50 in series [2] was 5.01 nM. In addition, the CC50 in series [3] (setting [5]) was 5010 nM; in series [3] (setting [6]) it was 5010 nM; in series [4], 74.1 nM.

With `CO[C@@H]1C[C@H](C(=O)Nc2ccc(C(F)(F)F)cc2F)[C@@H](C(=O)O)[C@H](c2ccc(N(C)S(=O)(=O)c3ccc4c(c3)nc(C)n4C)cc2)C1` (relative stereo) [Example 148, rel-(1R,2R,4R,6S)-2-((2-fluoro-4-(trifluoromethyl)phenyl)carbamoyl)-4-methoxy-6-(4-((N,1,2-trimethyl-1H-benzo[d]imidazole)-5-sulfonamido)phenyl)cyclohexane-1-carboxylic acid], in series [1], the fraction unbound at 4 h, 1 µM is 0.129. Also, the IC50 in series [2] was 1.26 nM. Moreover, the results for the CC50 in series [3] (setting [5]), in series [3] (setting [6]) and in series [4] were 200 nM, 200 nM and 25.7 nM, respectively.

Consider `Cc1nc2cc(S(=O)(=O)N(C)c3ccc([C@H]4C[C@@H](OCC(F)F)C[C@@H](C(=O)Nc5ccc(C(F)(F)F)cc5F)[C@@H]4C(=O)O)cc3)ccc2n1C` (relative stereo) [Example 159, rel-(1R,2R,4R,6S)-4-(2,2-difluoroethoxy)-2-((2-fluoro-4-(trifluoromethyl)phenyl)carbamoyl)-6-(4-((N,1,2-trimethyl-1H-benzo[d]imidazole)-5-sulfonamido)phenyl)cyclohexane-1-carboxylic acid], for which the fraction unbound at 4 h, 1 µM in series [1] worked out at 0.0991. The IC50 in series [2] is 2.51 nM. Besides, the CC50 in series [3] (setting [5]) was 200 nM; in series [3] (setting [6]), 200 nM; in series [4] it was 20 nM.

`Cc1nc2cc(S(=O)(=O)N(C)c3ccc([C@H]4CCC[C@@H](C(=O)Nc5ccc(C(F)(F)F)cc5F)[C@@H]4C(=O)O)nc3)ccc2n1C` (relative stereo) [Example 161, rel-(1R,2R,6S)-2-((2-fluoro-4-(trifluoromethyl)phenyl)carbamoyl)-6-(5-((N,1,2-trimethyl-1H-benzo[d]imidazole)-5-sulfonamido)pyridin-2-yl)cyclohexane-1-carboxylic acid]: the fraction unbound at 4 h, 1 µM in series [1] amounted to 0.0481. The IC50 in series [2] was 2.51 nM. Besides, the values for the CC50 in series [3] (setting [5]), in series [3] (setting [6]) and in series [4] were 794 nM, 794 nM and 38 nM, respectively.

For `Cc1nc2cc(S(=O)(=O)N(C)c3ccc([C@H]4CCC[C@@H](C(=O)Nc5ccc(C(F)(F)F)cc5F)[C@@H]4C(=O)O)cc3)cc(C3CCCN(C)C3)c2n1C` (relative stereo) [Example 270, (1R,2R,6S)-2-((2-fluoro-4-(trifluoromethyl)phenyl)carbamoyl)-6-(4-((N,1,2-trimethyl-7-((S*)-1-methylpiperidin-3-yl)-1H-benzo[d]imidazole)-5-sulfonamido)phenyl)cyclohexane-1-carboxylic acid], the “4 hr UNW pIC50” value in series [2] is on record as 9.0. In addition, the “SW48 pCC50” value in series [3] (setting [7]) and in series [3] (setting [8]) was 6.5 throughout. The “Free Drug SW48 pCC50” value in series [4] was 7.18.

As for `Cc1nc2cc(S(=O)(=O)N(C)c3ccc([C@H]4C[C@H](N5CCC(F)(F)CC5)C[C@@H](C(=O)Nc5ccc(C(F)(F)F)cc5F)[C@@H]4C(=O)O)cc3)ccc2n1C` (relative stereo) [Example 342, rel-(1R,2R,4S,6S)-4-(4,4-difluoropiperidin-1-yl)-2-((2-fluoro-4-(trifluoromethyl)phenyl)carbamoyl)-6-(4-((N,1,2-trimethyl-1H-benzo[d]imidazole)-5-sulfonamido)phenyl)cyclohexane-1-carboxylic acid], the fraction unbound at 4 h, 1 µM in series [1] is 0.0623. Moreover, the CC50 in series [3] (setting [5]) is 6310 nM; in series [3] (setting [6]), 6310 nM; in series [4], 389 nM.

Regarding `Cc1nc2cc(S(=O)(=O)N(C)c3ccc([C@H]4C[C@@H]5OCC[C@@H]5[C@@H](C(=O)Nc5ccc(C(F)(F)F)cc5F)[C@@H]4C(=O)O)cc3)ccc2n1C` (single isomer, unassigned) [Example 158], the IC50 in series [2] was 31.6 nM. In addition, the “SW48 pCC50” value in series [3] (setting [7]) and in series [3] (setting [8]) was 5.4 each time. Besides, the “Free Drug SW48 pCC50” value in series [4] is reported as 6.03.

For `Cc1nc2cc(S(=O)(=O)N(C)c3ccc([C@H]4C[C@@H](N5CCOCC5)C[C@@H](C(=O)Nc5ccc(C(F)(F)F)cc5F)[C@@H]4C(=O)O)cc3)ccc2n1C` (single isomer, unassigned) [Example 340], the IC50 in series [2] is 7.94 nM. Besides, the “SW48 pCC50” value in series [3] (setting [7]) and in series [3] (setting [8]) was 5.1 throughout. For the same compound, the “Free Drug SW48 pCC50” value in series [4] is given as 5.99.

As for `Cc1nc2cc(S(=O)(=O)N(C)c3ccc([C@H]4C[C@@H](N5CCC[C@@H](F)C5)C[C@@H](C(=O)Nc5ccc(C(F)(F)F)cc5F)[C@@H]4C(=O)O)cc3)ccc2n1C` (single isomer, unassigned) [Example 347, rel-(1R*,2R*,4S*,6S*)-2-((2-fluoro-4-(trifluoromethyl)phenyl)carbamoyl)-4-((R)-3-fluoropiperidin-1-yl)-6-(4-((N,1,2-trimethyl-1H-benzo[d]imidazole)-5-sulfonamido)phenyl)cyclohexane-1-carboxylic acid], the IC50 in series [2] was 10 nM. The “SW48 pCC50” value in series [3] (setting [7]) and in series [3] (setting [8]) was 5.2 in each case. For the same compound, the “Free Drug SW48 pCC50” value in series [4] is reported as 6.17.

Consider `Cc1nc2cc(S(=O)(=O)N(C)c3ccc([C@H]4C[C@@H](N5CCC[C@@H](F)C5)C[C@@H](C(=O)Nc5ccc(C(F)(F)F)cc5F)[C@@H]4C(=O)O)cc3)ccc2n1C` (single isomer, unassigned) [Example 376, rel-(1R*,2R*,4R*,6S*)-2-((2-fluoro-4-(trifluoromethyl)phenyl)carbamoyl)-4-((R)-3-fluoropiperidin-1-yl)-6-(4-((N,1,2-trimethyl-1H-benzo[d]imidazole)-5-sulfonamido)phenyl)cyclohexane-1-carboxylic acid], for which the IC50 in series [2] is 2.51 nM. Besides, the “SW48 pCC50” value in series [3] (setting [7]) and in series [3] (setting [8]) was 7.1 in each case. Besides, the “Free Drug SW48 pCC50” value in series [4] is recorded as 7.70.

In the case of `Cc1nc2cc(S(=O)(=O)N(C)c3ccc([C@@H]4C[C@@H]5COC[C@@H]5[C@@H](C(=O)Nc5ccc(C(F)(F)F)cc5F)[C@@H]4C(=O)O)cc3)ccc2n1C` (single isomer, unassigned) [Example 390], in series [2], the IC50 is 6.31 nM. In addition, the “SW48 pCC50” value in series [3] (setting [7]) and in series [3] (setting [8]) was 5.7 each time. For the same compound, the “Free Drug SW48 pCC50” value in series [4] is 6.49.

As to `Cc1nc2cc(S(=O)(=O)N(C)c3ccc([C@H]4C[C@@H](O[C@H]5CCOC5)C[C@@H](C(=O)Nc5ccc(C(F)(F)F)cc5F)[C@@H]4C(=O)O)cc3)ccc2n1C` (stereo in doubt) [Example 324, (1R*,2R*,4R*,6S*)-2-((2-fluoro-4-(trifluoromethyl)phenyl)carbamoyl)-4-(((S)-tetrahydrofuran-3-yl)oxy)-6-(4-((N,1,2-trimethyl-1H-benzo[d]imidazole)-5-sulfonamido)phenyl)cyclohexane-1-carboxylic acid], the “4 hr UNW pIC50” value in series [2] came to 7.2. The “SW48 pCC50” value in series [3] (setting [7]) and in series [3] (setting [8]) was 5.1 in each case. For the same compound, in series [4], the “Free Drug SW48 pCC50” value is reported as 5.60.

Turning to `CN(c1ccc([C@H]2CCC[C@@H](C(=O)Nc3ccc(C(F)(F)F)cc3F)[C@@H]2C(=O)O)cc1)S(=O)(=O)c1ccc(-c2ccn(C)n2)cc1` [Example 99, (1R,2R,6S)-2-((2-fluoro-4-(trifluoromethyl)phenyl)carbamoyl)-6-(4-((N-methyl-4-(1-methyl-1H-pyrazol-3-yl)phenyl)sulfonamido)phenyl)cyclohexane-1-carboxylic acid], the “4 hr UNW pIC50” value in series [2] came out at 8.6. Besides, the “SW48 pCC50” value in series [3] (setting [7]) and in series [3] (setting [8]) was 6.1 each time. The “Free Drug SW48 pCC50” value in series [4] is given as 7.77.

As for `CN(c1ccc([C@H]2CCC[C@@H](C(=O)Nc3ccc(C(F)(F)F)cc3F)[C@@H]2C(=O)O)cc1)S(=O)(=O)c1cc(I)c2occc2c1` [Example 117, (1R,2R,6S)-2-((2-fluoro-4-(trifluoromethyl)phenyl)carbamoyl)-6-(4-((7-iodo-N-methylbenzofuran)-5-sulfonamido)phenyl)cyclohexane-1-carboxylic acid], the IC50 in series [2] is 63.1 nM. Moreover, in series [3] (setting [5]), the CC50 is 3980 nM. In addition, the “SW48 pCC50” value in series [3] (setting [8]) stood at 5.4. Besides, in series [4], the “Free Drug SW48 pCC50” value was 8.36.
